Laboratory results reported in US8969352B2, “Substituted 2-azabicycles and their use as orexin receptor modulators” (Janssen Pharmaceutica NV, priority 2013, dated 2015).

Columns and labels:
rat orexin 1 receptor = rat orexin 1 receptor (Rattus norvegicus, UniProt P56718); assay: Rat orexin 1 receptor radioligand binding; conditions: HEK293 cells stably expressing rat orexin 1 receptor; competitive radioligand binding, apparent Ki; read-out: rOX1 Ki
Protocol: (§1) Rat and Human Orexin 1 Receptor Radioligand Binding Studies
(§2) After centrifugation (2K×G, 5 min at 4° C.), the supernatant was aspirated and the pellets frozen and stored at −80° C. […] Each cell pellet from a 15 cm plate was resuspended in 10 mL, stored on ice, and homogenized for 45 sec prior to addition to the reactions. […] The final concentration of DMSO in the reactions is equal to or less than 0.1%. Total and nonspecific binding was determined in the absence and presence of 10 μM almorexant. The total volume of each reaction is 200 μL (20 μL of diluted compounds, 80 μL of [^3H]-(1-(5-(2-fluoro-phenyl)-2-methyl-thiazol-4-yl)-1-((S)-2-(5-phenyl-(1,3,4)oxadiazol-2-ylmethyl)-pyrrolidin-1-yl)-methanone) diluted in PBS and 100 μL of the cell suspension). […] The plates were washed 3 times by aspirating 30 ml PBS through the plates. Plates were dried in 55° C. oven for 60 min, scintillation fluid was added, and the radioactivity was counted on a Topcount (Packard).

human orexin 1 receptor = human orexin 1 receptor (Homo sapiens, UniProt O43613); assay: Human orexin 1 receptor radioligand binding; conditions: CHO cells stably expressing human orexin 1 receptor; competitive radioligand binding, apparent Ki; read-out: hOX1 Ki
Protocol: as §1, §2

human orexin 2 receptor = human orexin 2 receptor (Homo sapiens (Human), UniProt O43614); assay: Human orexin 2 receptor radioligand binding; conditions: HEK293 stably expressing human orexin 2 receptor; [3H]-EMPA competitive binding, apparent Ki; read-out: hOX2 Ki
Protocol: Human Orexin 2 Receptor Radioligand Binding Studies
as §2, with “sec just” for “sec”, “reactions. Competition binding experiments in 96 well polypropylene plates were performed using [^3H]-EMPA (Moraveck Corporation, specific activity=29.6 Ci/mmol), diluted to a 5 nM concentration in PBS (2 nM final concentration).” for “reactions.”, “[^3H]-EMPA” for “[^3H]-(1-(5-(2-fluoro-phenyl)-2-methyl-thiazol-4-yl)-1-((S)-2-(5-phenyl-(1,3,4)oxadiazol-2-ylmethyl)-pyrrolidin-1-yl)-methanone)”

human orexin 2 receptor, sequence (O43614 whole entry): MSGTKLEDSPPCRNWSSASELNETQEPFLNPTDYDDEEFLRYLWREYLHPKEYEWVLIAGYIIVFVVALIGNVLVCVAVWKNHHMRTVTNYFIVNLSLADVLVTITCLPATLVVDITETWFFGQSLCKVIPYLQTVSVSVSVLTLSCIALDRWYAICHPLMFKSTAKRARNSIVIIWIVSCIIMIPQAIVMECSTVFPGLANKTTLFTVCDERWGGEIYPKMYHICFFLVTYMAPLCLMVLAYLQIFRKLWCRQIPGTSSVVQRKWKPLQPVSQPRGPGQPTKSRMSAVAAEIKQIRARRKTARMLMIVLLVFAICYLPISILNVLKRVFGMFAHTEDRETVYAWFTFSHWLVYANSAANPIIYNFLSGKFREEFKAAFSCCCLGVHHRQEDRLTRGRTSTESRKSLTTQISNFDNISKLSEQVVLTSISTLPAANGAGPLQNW

SMILES | Ki (rat orexin 1 receptor) [nM] | Ki (human orexin 1 receptor) [nM] | Ki (human orexin 2 receptor) [nM]
COc1c(F)cccc1C(=O)N1C[C@H]2C[C@@H](Oc3ccc(C(F)(F)F)cn3)[C@@H]1C2 [Example 31, (3-fluoro-2-methoxyphenyl)((1S,4R,6R)-6-((5-(trifluoromethyl)pyridin-2-yl)oxy)-2-azabicyclo[2.2.1]heptan-2-yl)methanone] | 707 | – | > 10000
O=C(c1cccc(F)c1-n1nccn1)N1CC2CC(Oc3ccc(C(F)(F)F)cn3)C1C2 (racemic) [Example 16, (R/S)-(3-fluoro-2-(2H-1,2,3-triazol-2-yl)phenyl)(6-((5-(trifluoromethyl)pyridin-2-yl)oxy)-2-azabicyclo[2.2.1]heptan-2-yl)methanone] | 8 | – | –
O=C(c1c(F)cccc1-c1ncccn1)N1C[C@H]2C[C@@H](Oc3ccc(C(F)(F)F)cn3)[C@@H]1C2 [Example 38, (2-fluoro-6-(pyrimidin-2-yl)phenyl)((1S,4R,6R)-6-((5-(trifluoromethyl)pyridin-2-yl)oxy)-2-azabicyclo[2.2.1]heptan-2-yl)methanone] | 8 | 8 | 690
O=C(c1c(F)cccc1-c1ncccn1)N1C[C@H]2C[C@@H](Oc3ccc(Br)cn3)[C@@H]1C2 [Example 47, ((1S,4R,6R)-6-((5-bromopyridin-2-yl)oxy)-2-azabicyclo[2.2.1]heptan-2-yl)(2-fluoro-6-(pyrimidin-2-yl)phenyl)methanone] | 7 | 11 | –
O=C(c1ccc(F)cc1-c1ncccn1)N1CC2CC(Oc3ccc(C(F)(F)F)cn3)C1C2 (racemic) [Example 20, (R/S)-(4-fluoro-2-(pyrimidin-2-yl)phenyl)(-6-((5-(trifluoromethyl)pyridin-2-yl)oxy)-2-azabicyclo[2.2.1]heptan-2-yl)methanone] | – | – | 2700
O=C(c1ccccc1-n1cnnc1)N1CC2CC(Oc3ccc(C(F)(F)F)cn3)C1C2 (racemic) [Example 21, (R/S)-(2-(4H-1,2,4-triazol-4-yl)phenyl)(6-((5-(trifluoromethyl)pyridin-2-yl)oxy)-2-azabicyclo[2.2.1]heptan-2-yl)methanone] | > 10000 | – | > 10000
O=C(c1ccc(F)cc1-c1ncccn1)N1C[C@H]2C[C@@H](Oc3ccc(C(F)(F)F)cn3)[C@@H]1C2 [Example 26, (4-fluoro-2-(pyrimidin-2-yl)phenyl)((1S,4R,6R)-6-((5-(trifluoromethyl)pyridin-2-yl)oxy)-2-azabicyclo[2.2.1]heptan-2-yl)methanone] | – | – | 2100
Cc1cnc(C(=O)N2CC3CC(Oc4cnc(C(F)(F)F)cn4)C2C3)c(-n2nccn2)c1 (racemic) [Example 4] | 837 | – | > 10000
Cc1ccc(-n2nccn2)c(C(=O)N2C[C@H]3C[C@@H](Oc4ncccc4C(F)(F)F)[C@@H]2C3)n1 [Example 52, (6-methyl-3-(2H-1,2,3-triazol-2-yl)pyridin-2-yl)((1S,4R,6R)-6-((3-(trifluoromethyl)pyridin-2-yl)oxy)-2-azabicyclo[2.2.1]heptan-2-yl)methanone] | 550 | – | 4000
O=C(c1ccccc1-n1nccn1)N1C[C@H]2C[C@@H](Nc3ccc(C(F)(F)F)cn3)[C@@H]1C2 [Example 53, (2-(2H-1,2,3-triazol-2-yl)phenyl)((1S,4S,6R)-6-((5-(trifluoromethyl)pyridin-2-yl)amino)-2-azabicyclo[2.2.1]heptan-2-yl)methanone] | 3 | 3 | –
CCOc1ncc2ccccc2c1C(=O)N1CC2CC(Oc3ccc(C(F)(F)F)cn3)C1C2 (racemic) [Example 8, (R/S)-(3-ethoxyisoquinolin-4-yl)(6-((5-(trifluoromethyl)pyridin-2-yl)oxy)-2-azabicyclo[2.2.1]heptan-2-yl)methanone] | – | – | 1450

More lines, now with the values ahead:

Ki (rat orexin 1 receptor) [nM] | Ki (human orexin 1 receptor) [nM] | Ki (human orexin 2 receptor) [nM] | SMILES
8 | – | – | O=C(c1cccc(F)c1-n1nccn1)N1C[C@H]2C[C@@H](Oc3ccc(C(F)(F)F)cn3)[C@@H]1C2 [Example 35, (3-fluoro-2-(2H-1,2,3-triazol-2-yl)phenyl)((1S,4R,6R)-6-((5-(trifluoromethyl)pyridin-2-yl)oxy)-2-azabicyclo[2.2.1]heptan-2-yl)methanone]
3 | 3 | 46 | Cc1cccc(C(=O)N2C[C@H]3C[C@@H](Nc4ccc(C(F)(F)F)cn4)[C@@H]2C3)c1-n1nccn1 [Example 55, (3-methyl-2-(2H-1,2,3-triazol-2-yl)phenyl)((1S,4S,6R)-6-((5-(trifluoromethyl)pyridin-2-yl)amino)-2-azabicyclo[2.2.1]heptan-2-yl)methanone]
– | – | 234 | Cc1cccc(C(=O)N2CC3CC(Oc4ccc(C(F)(F)F)cn4)C2C3)c1-n1nccn1 (racemic) [Example 17, (R/S)-(3-methyl-2-(2H-1,2,3-triazol-2-yl)phenyl)(6-((5-(trifluoromethyl)pyridin-2-yl)oxy)-2-azabicyclo[2.2.1]heptan-2-yl)methanone]
5 | 11 | – | O=C(c1ccccc1-n1nccn1)N1C[C@H]2C[C@@H](Oc3ccc(C(F)(F)F)cn3)[C@@H]1C2 [Example 36, (2-(2H-1,2,3-triazol-2-yl)phenyl)((1S,4R,6R)-6-((5-(trifluoromethyl)pyridin-2-yl)oxy)-2-azabicyclo[2.2.1]heptan-2-yl)methanone]
19 | 22 | 1700 | O=C(c1ncccc1-n1nccn1)N1C[C@H]2C[C@@H](Oc3ccc(C(F)(F)F)cn3)[C@@H]1C2 [Example 30, (3-(2H-1,2,3-triazol-2-yl)pyridin-2-yl)((1S,4R,6R)-6-((5-(trifluoromethyl)pyridin-2-yl)oxy)-2-azabicyclo[2.2.1]heptan-2-yl)methanone]
4400 | – | > 10000 | Cc1cnn(C)c1-c1ccccc1C(=O)N1C[C@H]2C[C@@H](Oc3ccc(C(F)(F)F)cn3)[C@@H]1C2 [Example 41, (2-(1,4-dimethyl-1H-pyrazol-5-yl)phenyl)((1S,4R,6R)-6-((5-(trifluoromethyl)pyridin-2-yl)oxy)-2-azabicyclo[2.2.1]heptan-2-yl)methanone]
294 | – | 676 | O=C(c1ccccc1-n1nccn1)N1C[C@H]2C[C@@H](Oc3ncccc3C(F)(F)F)[C@@H]1C2 [Example 51, (2-(2H-1,2,3-triazol-2-yl)phenyl)((1S,4R,6R)-6-((3-(trifluoromethyl)pyridin-2-yl)oxy)-2-azabicyclo[2.2.1]heptan-2-yl)methanone]
– | – | 229 | COc1cccc(-n2nccn2)c1C(=O)N1CC2CC(Oc3ccc(C(F)(F)F)cn3)C1C2 (racemic) [Example 15]
74 | 120 | – | O=C(c1ccccc1-n1nccn1)N1CC2CC(Oc3cnc(C(F)(F)F)cn3)C1C2 (racemic) [Example 1, (R/S)-(2-(2H-1,2,3-triazol-2-yl)phenyl)(6-((5-(trifluoromethyl)pyrazin-2-yl)oxy)-2-azabicyclo[2.2.1]heptan-2-yl)methanone]
3 | 4 | – | Cc1cccc(C(=O)N2C[C@H]3C[C@@H](Oc4ccc(C(F)(F)F)cn4)[C@@H]2C3)c1-c1ncco1 [Example 32, (3-methyl-2-(oxazol-2-yl)phenyl)((1S,4R,6R)-6-((5-(trifluoromethyl)pyridin-2-yl)oxy)-2-azabicyclo[2.2.1]heptan-2-yl)methanone]
10 | 12 | – | O=C(c1c(F)cccc1-n1nccn1)N1C[C@H]2C[C@@H](Oc3ccc(C(F)(F)F)cn3)[C@@H]1C2 [Example 46, (2-fluoro-6-(2H-1,2,3-triazol-2-yl)phenyl)((1S,4R,6R)-6-((5-(trifluoromethyl)pyridin-2-yl)oxy)-2-azabicyclo[2.2.1]heptan-2-yl)methanone]
21 | 12 | – | O=C(c1ccccc1-n1nccn1)N1CC2CC(Oc3ccc(C(F)(F)F)cn3)C1C2 (racemic) [Example 7, (R/S)-(2-(2H-1,2,3-triazol-2-yl)phenyl)(6-((5-(trifluoromethyl)pyridin-2-yl)oxy)-2-azabicyclo[2.2.1]heptan-2-yl)methanone]
25 | 23 | – | O=C(c1c(F)cccc1-n1nccn1)N1CC2CC(Oc3ccc(C(F)(F)F)cn3)C1C2 (racemic) [Example 18, (R/S)-(2-fluoro-6-(2H-1,2,3-triazol-2-yl)phenyl)(6-((5-(trifluoromethyl)pyridin-2-yl)oxy)-2-azabicyclo[2.2.1]heptan-2-yl)methanone]
